Measurements published in patent US20230241242A1, “PREPARATION METHOD FOR ANTIBODY MEDICAMENT CONJUGATE” (priority 2020, published 2023).

Key:
[1] = system: human breast cancer cells trastuzumab drug-resistant strain (herceptin) JIMT-1 xenograft tumor; experiment: Drug efficacy on JIMT-1 tumor-bearing mice; type: in vivo, nu/nu nude mice; conditions: 10 mg/kg; two intraperitoneal injections; observation for 34 days
Description: The tumor volumes and body weights were measured twice a week and the results were recorded.
Tumor volume (V) was calculated as: V=½×Llong×Lshort^2

[2] = system: U87MG cells; experiment: Inhibition of in vitro proliferation of tumor cells by compounds (CTG, 6 days); type: cell-based; conditions: Homo sapiens, U-87 MG, 144 h, read-out: IC50 in inhibiting in vitro proliferation of U87 cells
Description: (§1) This experiment was intended to detect the inhibitory activity of the pharmaceutical compounds of the present disclosure against the in vitro proliferation of U87MG cells (Cell Bank, Chinese Academy of Sciences, Catalog #TCHu138) and SK-BR-3 tumor cells (human breast cancer cells, ATCC, Cat #HTB-30). The cells were treated in vitro with a compound at different concentrations. After 6 days of culture, the proliferation of cells was tested using CTG (CellTiter-Glo® Luminescent Cell Viability Assay, Promega, Cat #G7573) reagents, and the in vitro activity of the compound was evaluated according to IC50 value.
(§2) The method for testing the inhibition of the in vitro proliferation of U87MG cells was described below as an example for the method for assaying for the inhibitory activity of the compounds of the present disclosure against the in vitro proliferation of tumor cells.
(§3) 1. Cell culture: U87MG and SK-BR-3 cells were cultured in EMEM medium (GE, Cat #SH30024.01) containing 10% FBS and McCoy's 5A medium (Gibco, Cat #16600-108) containing 10% FBS, respectively.
(§4) 2. Cell preparation: U87MG and SK-BR-3 cells growing at log phase were washed once with PBS (phosphate buffer, Shanghai BasalMedia Technologies Co., Ltd.) and then digested with 2-3 mL of trypsin (0.25% Trypsin-EDTA (1×), Gibico, Life Technologies) for 2-3 min After the cells were completely digested, 10-15 mL of cell culture media were added to elute the digested cells. The mixtures were centrifuged at 1000 rpm for 5 min, and the supernatants were discarded. Then the cells were resuspended in 10-20 mL of cell culture media to give single-cell suspensions.
(§5) 3. Cell plating: the U87MG and SK-BR-3 single-cell suspensions were each well mixed and adjusted with cell culture media to cell densities of 2.75×10^3 cells/mL and 8.25×10^3 cells/mL, respectively. The adjusted cell suspensions were each well mixed and added to 96-well cell culture plates at 180 μL/well. To each of the peripheral wells of the 96-well plates was added 200 μL of media only. The plate was incubated in an incubator for 24 h (37° C., 5% CO2).
(§6) 4. Compound preparation: the compound was dissolved in DMSO (dimethyl sulfoxide, Shanghai Titan Scientific Co., Ltd.) to prepare a stock solution at an initial concentration of 10 mM.
(§7) Small molecule compounds were prepared at an initial concentration of 500 nM as follows.
(§8) Different test samples at 100 μM (30 μL) were added to the first column of a 96-well U-bottom plate, and 20 μL of DMSO was added to each well of the second column through the eleventh column. […]
(§9) 7. Plate reading: the 96-well cell culture plate was taken out and tested in a microplate reader (BMG labtech, PHERAstar FS) for chemiluminescence.
(§10) Data were processed and analyzed using Microsoft Excel and Graphpad Prism 5.

[3] = system: SK-BR-3 tumor cells; experiment: as above; type: cell-based; conditions: Homo sapiens, SK-BR-3, 144 h, read-out: IC50 in inhibiting in vitro proliferation of SK-BR-3 cells
Description: as §1, §2, §3, §4, §5, §6, §7, §8, §9, §10

| Molecule | tumor inhibition rate [1] | IC50 [2] [nM] | IC50 [3] [nM] |
| --- | --- | --- | --- |
| T-DM1 | no inhibition effect on tumors | – | – |
| CC[C@@]1(O)C(=O)OCc2c1cc1n(c2=O)Cc2c-1nc1cc(F)c(C)c3c1c2[C@@H](NC(=O)C1(CO)CC1)CC3 [Compound 5, N-((1S,9S)-9-ethyl-5-fluoro-9-hydroxy-4-methyl-10,13-dioxo-2,3,9,10,13,15-hexahydro-1H,12H-benzo[de]pyrano[3′,4′:6,7]indolizino[1,2-b]quinolin-1-yl)-1-(hydroxymethyl)cyclopropane-1-carboxamide] | – | 4.81 | – |
| CC[C@@]1(O)C(=O)OCc2c1cc1n(c2=O)Cc2c-1nc1cc(F)c(C)c3c1c2[C@@H](NC(=O)C1(O)CCCC1)CC3 [Compound 4, N-((1S,9S)-9-ethyl-5-fluoro-9-hydroxy-4-methyl-10,13-dioxo-2,3,9,10,13,15-hexahydro-1H,12H-benzo[de]pyrano[3′,4′:6,7]indolizino[1,2-b]quinolin-1-yl)-1-hydroxycyclopentane-1-carboxamide] | – | – | 1.9 |
| CC[C@@]1(O)C(=O)OCc2c1cc1n(c2=O)Cc2c-1nc1cc(F)c(C)c3c1c2[C@@H](NC(=O)C1(O)CC1)CC3 [Compound 1, N-((1S,9S)-9-ethyl-5-fluoro-9-hydroxy-4-methyl-10,13-dioxo-2,3,9,10,13,15-hexahydro-1H,12H-benzo[de]pyrano[3′,4′:6,7]indolizino[1,2-b]quinolin-1-yl)-1-hydroxycyclopropane-1-carboxamide] | – | 0.23 | 0.12 |
